Source: patent publication US11767278B2, “Plant extract compositions for forming protective coatings” (Apeel Technology, Inc., priority 2015, dated 2023)

System: avocados
Experiment: Mass loss rates of avocados coated with compounds extracted by thermal depolymerization of cutin
Parameters: species or system avocado
Conditions: unpeeled avocados dipped in 10 mg/mL solution in ethanol, humidity about 40%-55%
Protocol: Protective coatings were formed over avocados by extracting compounds by method described herein (thermal depolymerization of cutin) and depositing the compounds over the outer surface of the (unpeeled) avocados. The mass loss rates of the avocados were then measured and compared to those of uncoated avocados. All coatings were formed by dipping the avocados in a solution comprising the associated compounds dissolved in substantially pure ethanol at a concentration of 10 mg/mL, placing the avocados on drying racks, and allowing the avocados to dry under ambient room conditions at a temperature in the range of about 23° C.-27° C. and humidity in the range of about 40%-55%. The avocados were held at these same temperature and humidity conditions for the entire duration of the time they were tested.
Mass loss rates are shown in FIG. 16 for untreated (e.g., uncoated) avocados in bar 1602, for avocados coated with ethyl 10,16-dihydroxyhexadecanoate (referred to as “EtDHPA”) in bar 1604, and for avocados coated with a mixture of EtDHPA and 1,3-dihydroxypropan-2-yl hexadecanoate (referred to as “PA-2G”) in bar 1606, where for bar 1606 the EtDHPA and PA-2G were mixed at a mass ratio of 30:70. […]

## CCOC(=O)CCCCCCCCC(O)CCCCCCO (centres unmarked) [EtDHPA, ethyl 10,16-dihydroxyhexadecanoate]
dried, held at about 23-27 °C, group of 30 avocados, FIG. 16
  average rate of mass decrease of coated avocados (mass loss rate): about 1.06 % per day
About 23-27 °C, uncoated avocados about 1.21% per day
  reduction of average mass loss rate as compared to the uncoated avocados: more than 12%
